Measured values reported in ChEMBL document CHEMBL1151374, “Plant anticancer agents. XIX Constituents of Aquilaria malaccensis” (1981).
Values after ≈ are worked out from the molar mass of the structure shown. Active and inactive are the calls of the source. No cut-off for these calls is given here.

Key:
[1] = test system: P388; assay: Cytotoxicity against mouse P388 cells in in vitro assay; type: functional; conditions: read-out: ED50 (the source's name)
[2] = test system: P388; assay: Cytotoxicity against mouse P388 cells in in vivo assay; type: functional, organism-based

SMILES | EC50 [1] [µg/mL] | Activity [2]
CCC/C=C/C=C/C=C/C(=O)O[C@@H]1[C@@H](C)[C@@]2(O)[C@@H](C=C(CO)C[C@]3(O)C(=O)C(C)=C[C@@H]23)[C@@H]2C(C)(C)[C@]12OC(C)=O | 0.0022 (≈ 0.00397 µM) | 
CCCCCCCCCCCCCCCCCCCCCC(=O)OCC(COC(=O)CCCCCCCCCCCCCCCCCCCCC)OC(=O)/C=C/c1ccc(O)c(OC)c1 | 0.8 (≈ 0.876 µM) | inactive
